According to patent US12491217B2, “Compositions and methods for promoting healthy neural development in an unborn baby” (The Regents of the University of California, priority 2019, dated 2025):
Counter-ions that a name gives are not always drawn.

Test system: thalamic explants from E14.5 embryos of ABX-treated dams
Assay: Axon outgrowth assay with individual metabolite supplementation
Type: cell-based, C57Bl/6J mice
Conditions: for Length of ABX thalamic axons proximal to hypothalamus / Number of ABX thalamic axons proximal to hypothalamus: ABX thalamic + ABX hypothalamic explant; for Length of ABX thalamic axons proximal to hypothalamus / Number of ABX thalamic axons proximal to hypothalamus / Length of axons proximal to striatal explant: 1 nM, 100 nM, 10 uM; for Length of axons proximal to striatal explant / Number of axons per 200 μm of thalamic perimeter proximal to striatal explant: ABX thalamic + ABX striatal explant, 48 hrs; for Number of axons per 200 μm of thalamic perimeter proximal to striatal explant: physiologically-relevant concentrations (1 nM, 100 nM, 10 uM)
Description: Dams were sacrificed on E14.5 by cervical dislocation to preclude confounding effects of CO2 on maternal and fetal physiology. Thalamic, striatal, and hypothalamic explants were isolated from E14.5 embryonic brains and transferred to ice-cold HBSS (Invitrogen). Explants were sliced to ˜500 μm and placed on a thin layer of 50 μl BD Matrigel (Beckton Dickinson) on a 15 mm coverslip. Each coverslip contained a thalamic explant at the center and a striatal and hypothalamic explant on each side, at 1 mm equidistant from the thalamic explant. Explants were incubated in warmed neurobasal complete media containing 1× neurobasal medium (Thermofisher Scientific), 1× GlutaMax (Thermofisher Scientific), and 2% B-27 (Thermofisher Scientific) for 48 hrs at 37° C., and fed with fresh media every 24 hrs. After 48 hrs, media was gently aspirated and replaced with 4% PFA for 1 hr and processed for immunofluorescence staining with 1:500 (3 tubulin III anti-mouse antibody (EMD Millipore MAB1637). Axons were imaged using a Leica DMi8 epifluorescence microscope and quantified using Fiji software^78. Axon numbers were quantified per 200 μm of thalamus at a distance of 200 μm from the thalamus. Length of axons was quantified by averaging length of the 10 longest axons proximal to striatum or hypothalamus. Data for number and length of axons in the explant co-culture system was normalized by subtraction of data from monoculture of thalamic explants from the corresponding experimental group.
Thalamic, striatal, and hypothalamic explants from ABX-treated dams were harvested and cultured as described in the “axon outgrowth assay” section above. For metabolite treatment, BD Matrigel was supplemented with […], 100 nM, or 1 nM of trimethylamine-N-oxide (TMAO), 5-aminovalerate (5-AV), imidazole propionate (IP), 3-indoxyl-sulfate (3-IS), or hippurate (llip)^48,79-81. 5-aminovalerate is a precursor to N,N,N-trimethyl-5-aminovalerate (TMAV), which is not commercially available, and both are implicated in carnitine metabolism^82,83. Metabolite concentrations were determined as physiologically relevant, based on reported concentrations detected in blood and/or cerebrum from the mouse multiple tissue metabolomic database (MMIvIDB), human metabolome database (HMDB) and existing literature^48,79-81. Axons were stained, imaged and analyzed as described in the “axon outgrowth assay” section above.

In the case of `NCCCCC(=O)O` [5-AV, 5-aminovalerate], the “Length of ABX thalamic axons proximal to hypothalamus” value (“Length of ABX thalamic axons proximal” below) is reported as “No statistically significant changes”, the “Number of ABX thalamic axons proximal to hypothalamus” value (shortened to “Number of ABX thalamic axons proximal”) is reported as “No statistically significant changes” and the “Length of axons proximal to striatal explant” value (“Length of axons proximal” for short) is reported as “significantly increased axon length”. The “Number of axons per 200 μm of thalamic perimeter proximal to striatal explant” value (shortened to “Number of axons per 200 μm … to striatal explant”) was “significantly increased axon number to levels seen in fetal brain explants from embryos of SPF dams”.

With `O=C(O)CNC(=O)c1ccccc1` [HIP, hippurate] the “Length of ABX thalamic axons proximal” value was “No statistically significant changes”, the “Number of ABX thalamic axons proximal” value was “No statistically significant changes” and the “Length of axons proximal” value was “no effect”. For the same molecule, the “Number of axons per 200 μm … to striatal explant” value was “significantly increased axon number to levels seen in fetal brain explants from embryos of SPF dams”.

In the case of `O=S(=O)(O)Oc1c[nH]c2ccccc12` [3-IS, 3-indoxyl sulfate], the “Length of ABX thalamic axons proximal” value is reported as “No statistically significant changes”, the “Number of ABX thalamic axons proximal” value is reported as “No statistically significant changes” and the “Length of axons proximal” value is reported as “modest, but not statistically significant, increases in axon length”. For the same molecule, the “Number of axons per 200 μm … to striatal explant” value was “but not 3-IS, significantly increased axon number”.

In the case of `C[N+](C)(C)[O-]` [TMAO, trimethylamine-N-oxide], the “Length of ABX thalamic axons proximal” value is reported as “No statistically significant changes”, the “Number of ABX thalamic axons proximal” value is reported as “No statistically significant changes” and the “Length of axons proximal” value is reported as “modest, but not statistically significant, increases in axon length”. For the same molecule, the “Number of axons per 200 μm … to striatal explant” value was “significantly increased axon number to levels seen in fetal brain explants from embryos of SPF dams”.

In the case of `O=C(O)CCc1cnc[nH]1` [IP, imidazole propionate], the “Length of ABX thalamic axons proximal” value is reported as “No statistically significant changes”, the “Number of ABX thalamic axons proximal” value is reported as “No statistically significant changes” and the “Length of axons proximal” value is reported as “significantly increased axon length”. For the same molecule, the “Number of axons per 200 μm … to striatal explant” value was “significantly increased axon number to levels seen in fetal brain explants from embryos of SPF dams”.
